# Results from patent publication US20040006236A1, “Diaminopropionic acid derivatives” (priority 1999, published 2004).
# pIC50: −log10 of the molar value.
# Assays:
# [1] = tested on: Mac-1 and LFA-1-mediated neutrophil binding to immobilized ICAM-1; assay: Neutrophil (Mac-1 and LFA-1)/ICAM-1 cell-based screening assay; conditions: human neutrophils
# Procedure: Both Mac-1 and LFA-1 are expressed on the cell surface of neutrophils. The ability of antagonists to inhibit Mac-1 and LFA-1-mediated neutrophil binding to immobilized ICAM-1 was quantitated by a cell based assay. Typically, fusion protein consisting of the entire extracellular domain of human ICAM-1 and the Fc domain of human IgG (5dICAM-Ig) was coated onto 96 well microtiter plates (1 μg in 100 μL TBS) overnight at 4° C. The plates were then blocked with 150 μL of 10% PVP in TBS for 1 h at 37° C. Plates were washed 3 times (150 μL each) with TBS. Human neutrophils were purified from whole blood from healthy volunteers using LSM (ICN). Cells (8×10^6/mL) were fluorescently labeled with 6-carboxyfluorescein (100 μg/mL) for 40 min in IMDM/1 mM MgCl2/1.2 mM CaCl2 as described in Example 287. Cells (8×10^6/mL) were stimulated with f-Met-Leu-Phe (10 μM) for 5 min at room temperature just prior to being used in the assay, and diluted to 2×10^6 cells/mL with RPMI/0.05% BSA/0.2 mM MnCl2. Stock solutions (10 mM) of test compounds were diluted to 2.5 mM with DMSO. A series of 1:4 dilutions in DMSO were performed to achieve a concentration range of 38.2 nM-2.5 mM. Each sample was further diluted 50-fold with RPMI/0.05% BSA/0.2 mM MnCl2. Equal volumes of labeled cells were then added to assay tubes containing diluted compound. Final concentrations of compound tested in the assay ranged from 0.38 nM-25 μM with a cell concentration of 1×10^6 per mL. Cells were incubated for 10 min at 37° C. with gentle shaking, then dispensed (100 μL per well) onto ICAM-1 coated plates and incubated for 30 min at 37° C./5% CO2. Unbound cells were washed and plates were read on a Cytofluor™ 2300 (Millipore) as described in Example 384.
# [2] = tested on: BALB/c mice; assay: Croton oil-induced dermatitis in mice (ear swelling); assay type: in vivo; conditions: compared to distilled water pumps
# Procedure: Adult female BALB/c mice (20-25 g) received 10 μl of 20 mg/ml of croton oil in 80% acetone:20% olive oil vehicle on each side of the right ear (total of 20 μl per mouse). All the mice received a similar volume of the acetone/olive oil vehicle on the contralateral left ear. Negative control mice received vehicle on both ears. Six hours thereafter, the ear swelling on both ears was measured with microcalipers. The ear swelling response was determined by subtraction of the swelling measurements of the left ear from that of the right ear for each individual mouse.
# Inhibitors were administered to mice via 3 day Alzet osmotic minipumps. Pumps containing different concentrations of the inhibitors were implanted on the backs of anaesthetized mice 2 days prior to croton oil application. Additional mice received an equal volume of distilled water in pumps. For mice receiving antibodies, anti-CD18 antibody (HB226) or control rat IgG were administered i.p. at 200 μg per mouse 18 hours prior to croton oil application.
# In table 11, the swelling response in antibody-treated animals is compared to the swelling response in rat IgG-treated animals. The swelling response in compound-treated animals is compared to the swelling-response in mice that had received pumps containing distilled water
# [3] = tested on: C57BI/6 mice; assay: Delayed type hypersensitivity in mice (mBSA paw swelling); assay type: in vivo; conditions: compared to distilled water pumps
# Procedure: Sensitization: On day 0, adult female C57BI/6 mice (20-25 g) received 50 μl each of a 1:1 mixture of 10 mg/ml methylated bovine serum albumin (mBSA) in phosphate buffered saline (PBS) and complete Freund's adjuvant (CFA) intradermally at two sites on shaved bellies (total volume 100 μl per mouse). Control mice received an equal volume of a PBS/CFA mixture (unsensitized).
# Challenge: On day 7, the mice received 20 μl I of 5 mg/ml mBSA in PBS injected into the right hind paw. The contralateral left paw of each mouse was injected with an identical volume of PBS. After 24 hours, the paw swelling of both the hind feet of all mice was measured with microcalipers. To determine the paw swelling response, measurements of the left paw were subtracted from that of the right paw for each individual mouse.
# At the time of challenge, anaesthetized mice were implanted on their backs with Alzet osmotic minipumps which delivered a constant volume per hour of the inhibitors (e.g. Example 226) subcutaneously. The pumps delivered a volume 200 μl over a period of 1 day. Different doses of the compounds were tested viz. 850, 250 and 85 mg/kg/day. The inhibitors were formulated in distilled water. Control mice received pumps containing distilled water. For antibody treatment groups, mice received 200 μg of anti-mouse LFA-1 (Mi7), anti-mouse Mac-1 (M1/70) or control rat IgG intraperitoneally on the day of challenge.
# In table 10, the swelling response in antibody-treated animals is compared to the swelling response in rat IgG-treated animals. The swelling response in compound-treated animals is compared to the swelling-response in mice that had received pumps containing distilled water
SMILES,pIC50 [1],also measured
O=C(CC1CCCCC1)NC[C@H](NC(=O)c1ccc(C(=O)NCc2cccc(O)c2)cc1Cl)C(=O)O [Example 78],6.60,
O=C(NCc1cccc(O)c1)c1ccc(C(=O)N[C@@H](CNC(=O)c2ccc3c(c2)S(=O)(=O)c2ccccc2C3=O)C(=O)O)c(Cl)c1 [Example 192],6.20,
O=C(NC[C@H](NC(=O)c1c(F)cccc1Cl)C(=O)O)c1ccc2[nH]nnc2c1 [Example 226],,"Percentage inhibition of ear swelling in response to croton oil application ([2]; 1 μM, osmotic minipump): 8%; Percentage inhibition of ear swelling in response to croton oil application ([2]; 2 μM circulating serum level (64 mg/kg/day, osmotic minipump)): 48%; Percentage inhibition of ear swelling in response to croton oil application ([2]; 4 μM circulating serum level (250 mg/kg/day, osmotic minipump)): 62%; Percentage inhibition of paw swelling in response to challenge with methylated bovine serum albumin ([3]; 1 μM, s.c. osmotic minipump): −2%; Percentage inhibition of paw swelling in response to challenge with methylated bovine serum albumin ([3]; 3 μM circulating serum level (250 mg/kg/day, s.c. osmotic minipump)): 52%; Percentage inhibition of paw swelling in response to challenge with methylated bovine serum albumin ([3]; 9 μM circulating serum level (850 mg/kg/day, s.c. osmotic minipump)): 77%"
"O=C(NCc1cccc(O)c1)c1ccc(C(=O)N[C@@H](CNC(=O)c2cc(F)cc(F)c2)C(=O)O)c(Cl)c1 [Example 252, N-[2-chloro-4-[[[(3-hydroxyphenyl)methyl]amino]carbonyl]benzoyl]-3-(3,5-difluorobenzoyl)amino-L-alanine]",7.47,
"O=C(NCc1cccc(O)c1)c1ccc(C(=O)N[C@@H](CNC(=O)c2ccoc2)C(=O)O)c(Cl)c1 [Example 259, N-[2-chloro-4-[[[(3-hydroxyphenyl)methyl]amino]carbonyl]benzoyl]-3-(furan-3-carbonyl)amino-L-alanine]",7.68,
"O=C(NCc1cccc(O)c1)c1ccc(C(=O)N[C@@H](CNC(=O)c2ccccc2)C(=O)O)c(Cl)c1 [Example 302, 3-benzoylamino-N-[2-chloro-4-[[[(3-hydroxyphenyl)methyl]amino]carbonyl]benzoyl]-L-alanine]",7.39,
"O=C(NCc1cccc(O)c1)c1ccc(C(=O)N[C@@H](CNC(=O)c2cccs2)C(=O)O)c(Cl)c1 [Example 303, N-[2-chloro-4-[[[(3-hydroxyphenyl)methyl]amino]carbonyl]benzoyl]-3-(thiophene-2-carbonyl)amino-L-alanine]",7.80,
Cc1cc(C(=O)NCc2cccc(O)c2)ccc1C(=O)N[C@@H](CNC(=O)c1cccs1)C(=O)O [Example 323],7.21,
"O=C(NCc1cccc2[nH]ncc12)c1ccc(C(=O)N[C@@H](CNC(=O)c2cccs2)C(=O)O)c(Cl)c1 [Example 327, N-[2-chloro-4-[[[(1H-indazol-4-yl)methyl]amino]carbonyl]benzoyl]-3-(thiophene-2-carbonyl)amino-L-alanine]",7.70,
Cc1cc(C(=O)NCc2cccc(O)c2)cc(C)c1C(=O)N[C@@H](CNC(=O)c1cccs1)C(=O)O [Example 330],8.17,
Cc1cc(C(=O)N[C@H](C)c2cccc3ccccc23)cc(C)c1C(=O)N[C@@H](CNC(=O)c1cccs1)C(=O)O [Example 333],7.85,
"Cc1cc(C(=O)NCc2cccc(O)c2)cc(C)c1C(=O)N[C@@H](CNC(=O)c1ccsc1)C(=O)O [Example 336, N-[2,6-dimethyl-4-[[[(3-hydroxyphenyl)methyl]amino]carbonyl]benzoyl]-3-(thiophene-3-carbonyl)amino-L-alanine]",8.21,
"Cc1cc(C(=O)NCc2cccc(O)c2)cc(C)c1C(=O)N[C@@H](CNC(=O)c1cc(F)cc(F)c1)C(=O)O [Example 337, N-[2,6-dimethyl-4-[[[(3-hydroxyphenyl)methyl]amino]carbonyl]benzoyl]-3-(3,5-difluorobenzoylamino)-L-alanine]",7.92,
"Cc1cc(C(=O)NCc2cccc(O)c2)cc(Cl)c1C(=O)N[C@@H](CNC(=O)c1cccs1)C(=O)O [Example 338, N-[2-chloro-4-[[[(3-hydroxyphenyl)methyl]amino]carbonyl]-6-methylbenzoyl]-3-[(thiophene-2-carbonyl)amino]-L-alanine]",8.41,
"Cc1cc(C(=O)NCc2cccc(O)c2)cc(Cl)c1C(=O)N[C@@H](CNC(=O)c1ccsc1)C(=O)O [Example 339, N-[2-chloro-4-[[[(3-hydroxyphenyl)methyl]amino]carbonyl]-6-methylbenzoyl]-3-[(thiophene-3-carbonyl)amino]-L-alanine]",8.52,
"Cc1cc(C(=O)NCc2cccc(O)c2)cc(Cl)c1C(=O)N[C@@H](CNC(=O)c1cc(F)cc(F)c1)C(=O)O [Example 340, N-[2-chloro-4-[[[(3-hydroxyphenyl)methyl]amino]carbonyl]-6-methylbenzoyl]-3-[(3,5-difluorobenzoyl)amino]-L-alanine]",8.40,
"O=C(NCc1cccc(O)c1)c1cc(Cl)c(C(=O)N[C@@H](CNC(=O)c2cccs2)C(=O)O)c(Cl)c1 [Example 342, N-[2,6-dichloro-4-[[[(3-hydroxyphenyl)methyl]amino]carbonyl]benzoyl]-3-[(thiophene-2-carbonyl)amino]-L-alanine]",8.64,
"O=C(NCc1cccc(O)c1)c1cc(Cl)c(C(=O)N[C@@H](CNC(=O)c2ccsc2)C(=O)O)c(Cl)c1 [Example 343, N-[2,6-dichloro-4-[[[(3-hydroxyphenyl)methyl]amino]carbonyl]benzoyl]-3-[(thiophene-3-carbonyl)amino]-L-alanine]",8.72,
"O=C(NCc1cccc(O)c1)c1cc(Cl)c(C(=O)N[C@@H](CNC(=O)c2cc(F)cc(F)c2)C(=O)O)c(Cl)c1 [Example 344, N-[2,6-dichloro-4-[[[(3-hydroxyphenyl)methyl]amino]carbonyl]benzoyl]-3-[(3,5-difluorobenzoyl)amino]-L-alanine]",8.77,
"O=C(NCc1cccc(O)c1)c1cc(Cl)c(C(=O)N[C@@H](CNC(=O)c2cc(O)cc(O)c2)C(=O)O)c(Cl)c1 [Example 345, N-[2,6-dichloro-4-[[[(3-hydroxyphenyl)methyl]amino]carbonyl]benzoyl]-3-(3,5-dihydroxybenzoylamino)-L-alanine]",10.00,
